Data on 1 compound can be found in ChEMBL document CHEMBL3351363 (J Med Chem, 2014).

The target of assay [1] is T1, Muscarinic acetylcholine receptor M1 (Homo sapiens, UniProt P11229).
T1 sequence (P11229 whole entry): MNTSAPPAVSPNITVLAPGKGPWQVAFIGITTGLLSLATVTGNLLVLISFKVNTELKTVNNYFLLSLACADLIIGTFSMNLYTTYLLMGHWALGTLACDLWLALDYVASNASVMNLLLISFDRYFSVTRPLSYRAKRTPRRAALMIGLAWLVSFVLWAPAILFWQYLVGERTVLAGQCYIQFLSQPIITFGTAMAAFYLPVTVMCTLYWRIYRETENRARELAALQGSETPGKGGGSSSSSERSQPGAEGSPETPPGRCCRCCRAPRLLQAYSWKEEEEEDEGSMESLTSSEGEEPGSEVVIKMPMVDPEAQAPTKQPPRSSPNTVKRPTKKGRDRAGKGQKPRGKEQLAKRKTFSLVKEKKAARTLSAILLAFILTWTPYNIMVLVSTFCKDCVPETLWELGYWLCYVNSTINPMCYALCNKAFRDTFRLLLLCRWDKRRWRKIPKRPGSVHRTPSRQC
The assay can be described thus: Agonist activity at human M1 receptor expressed in HEK293T cells by BRET based Gq protein engagement assay. (In general: In BRET a luciferase serves as donor, and the signal depends on an acceptor being close.)

Assay [2] addresses T1, Muscarinic acetylcholine receptor M1. Put plainly: Positive modulatory activity at human M1 receptor expressed in HEK293T cells assessed as effect on carbachol-induced response by BRET based Gq protein activation assay. It is filed as cell-based, HEK-293T.
Assay [3] concerns the target T2, Muscarinic acetylcholine receptor M4 (Homo sapiens, UniProt P08173).
T2 sequence (P08173 whole entry): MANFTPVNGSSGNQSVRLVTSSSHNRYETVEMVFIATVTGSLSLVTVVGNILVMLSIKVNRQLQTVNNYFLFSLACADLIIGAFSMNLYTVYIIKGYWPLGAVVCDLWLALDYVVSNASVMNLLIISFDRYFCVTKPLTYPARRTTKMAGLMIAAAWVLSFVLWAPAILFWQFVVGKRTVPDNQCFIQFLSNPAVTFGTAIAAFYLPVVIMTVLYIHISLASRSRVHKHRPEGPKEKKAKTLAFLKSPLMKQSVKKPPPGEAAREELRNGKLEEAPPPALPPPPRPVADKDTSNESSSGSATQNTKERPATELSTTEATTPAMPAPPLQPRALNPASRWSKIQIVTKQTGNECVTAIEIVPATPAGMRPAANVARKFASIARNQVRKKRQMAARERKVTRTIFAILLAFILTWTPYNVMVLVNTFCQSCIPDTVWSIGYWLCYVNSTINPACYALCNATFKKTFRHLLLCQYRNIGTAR
Put plainly: Antagonist activity at human M4 receptor expressed in HEK293T cells assessed as inhibition of xanomeline-induced response by beta-arrestin engagement assay. It is filed as cell-based, HEK-293T.

The target of assay [4] is T3, Muscarinic acetylcholine receptor M1 (Homo sapiens) (UniProt P11229).
T3 sequence (whole entry): T1 sequence (P11229 whole entry)
The assay can be described thus: Agonist activity at human M1 receptor expressed in HEK293T cells by BRET based beta-arrestin engagement assay relative to carbachol. It is filed as cell-based. The following applies: HEK-293T.

Assay [5] concerns the target T4, Muscarinic acetylcholine receptor M4 (Homo sapiens) (UniProt P08173).
T4 sequence (whole entry): T2 sequence (P08173 whole entry)
The assay can be described thus: Antagonist activity at human M4 receptor expressed in HEK293T cells assessed as inhibition of xanomeline-induced response by beta-arrestin engagement assay relative to untreated control. It is filed as cell-based. The following applies: HEK-293T.

Assay [6] addresses T1, Muscarinic acetylcholine receptor M1.
Assay [7] deals with T3, Muscarinic acetylcholine receptor M1 (Homo sapiens). Put plainly: Positive modulatory activity at human M1 receptor expressed in HEK293T cells assessed as effect on carbachol-induced response by BRET based Gq protein engagement assay relative to untreated control. It is filed as cell-based. The following applies: HEK-293T.
The target in assay [8] is T5, Muscarinic acetylcholine receptor M2 (Homo sapiens, UniProt P08172).
T5 sequence (P08172 whole entry): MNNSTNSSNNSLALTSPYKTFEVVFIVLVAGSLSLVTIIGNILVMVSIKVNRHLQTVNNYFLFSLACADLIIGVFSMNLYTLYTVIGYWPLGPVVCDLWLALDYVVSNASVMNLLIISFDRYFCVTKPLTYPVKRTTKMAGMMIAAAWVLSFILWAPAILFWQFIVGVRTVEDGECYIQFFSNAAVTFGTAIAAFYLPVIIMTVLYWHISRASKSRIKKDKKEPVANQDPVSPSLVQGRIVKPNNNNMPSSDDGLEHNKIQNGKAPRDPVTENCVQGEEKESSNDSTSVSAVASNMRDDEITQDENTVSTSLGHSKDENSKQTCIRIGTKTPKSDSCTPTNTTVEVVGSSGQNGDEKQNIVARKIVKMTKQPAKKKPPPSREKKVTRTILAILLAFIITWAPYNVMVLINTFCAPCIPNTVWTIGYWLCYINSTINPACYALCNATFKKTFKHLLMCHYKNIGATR
The assay can be described thus: Displacement of [3H]NMS from human M2 receptor expressed in CHO cells by microplate scintillation counting based radioligand binding assay. It is filed as cell-based. Background: Loss of bound radioactivity is the signal in a displacement assay; it reports binding, not function.

The target of assay [9] is T4, Muscarinic acetylcholine receptor M4 (Homo sapiens). The assay can be described thus: Antagonist activity at human M4 receptor expressed in HEK293T cells assessed as inhibition of carbachol-induced response by beta-arrestin engagement assay relative to untreated control. It is filed as cell-based. As to conditions: HEK-293T.
Assay [10] addresses T2, Muscarinic acetylcholine receptor M4. The assay can be described thus: Antagonist activity at human M4 receptor expressed in HEK293T cells assessed as inhibition of carbachol-induced response by beta-arrestin engagement assay. It is filed as cell-based, HEK-293T.

Consider `CCCCC1CCN(CCCN2C(=O)CCc3ccccc32)CC1`, for which the EC50 (as a rule, the concentration giving half of the maximal effect) in assay [1] was 60.3 nM; in assay [2] it was 191 nM. In addition, the results for the 50% inhibitory concentration (IC50) in [3], in assay [6] and in assay [10] were 7590 nM, 174 nM and 178 nM, respectively. For the same compound, the values for the Emax in assay [4] and in [7] were 32% and 101%, respectively. The Imax in assay [5] came to 19%; in [9], 16%. The Ki (commonly a measure of affinity in units of concentration, obtained from inhibition or displacement) in assay [8] was 204 nM.
